According to patent US4794110A, “5-Aryl-11-substituted-5H,11H-pyrrolo[2,1-c][1,4]benzoxazepined as analgesic and hypotensive agents” (Hoechst-Roussel Pharmaceuticals, Inc., priority 1987, dated 1988):
Several values for one entry are separate records, joined by “and”; a condition that tells them apart may be missing. Identical values can stand only once.

What was measured:
[1] = system: 2-phenyl-1,4-benzoquinone-induced writhing; experiment: 2-phenyl-1,4-benzoquinone-induced writhing test in mice (analgesic activity, phenylquinone writhing); type: in vivo
Description: The compounds of formula I of the present invention are useful as analgesic agents due to their ability to alleviate pain in mammals. […] Exptl. Biol. Med., 95, 729 (1957)].

[2] = system: spontaneous hypertensive rat; experiment: Antihypertensive activity in the spontaneous hypertensive rat by the indirect tail cuff method; type: in vivo; conditions: mean arterial blood pressure, third day
Experimental: In this procedure a group of five animals are treated orally for three days with the test compound in relation to a control group of the same number. The drop in blood pressure is measured on the third day following administration.

With CN(C)CC1Oc2ccccc2C(c2ccccc2)n2cccc21.Cl (single isomer, unassigned) [11-dimethylaminomethyl-5-phenyl-5H,11H--pyrrolo[2,1-c][1,4]b] [11-Dimethylaminomethyl-5-phenyl-5H,11H-pyrrolo[2,1-c][1,4]benzoxazepine hydrochloride] the “Analgesic PQW, % Inhibition of Writhing” value ([1]; 20 mg/kg, s.c., hydrochloride) was 24% and 35%.
In the case of O=C(O)C(=O)O.c1ccc(CN2CCC(C3Oc4ccccc4C(c4ccccc4)n4cccc43)CC2)cc1 (centres unmarked) [11-(1-Benzyl-4-piperidinyl)-5-phenyl-5H,11H-pyrrolo[2,1-c][1,4]benzoxazepine oxalate], the “Analgesic PQW, % Inhibition of Writhing” value ([1]; 20 mg/kg, s.c.) is reported as 34% and the “Decrease in Blood Pressure” value ([2]; 3 mg/kg, p.o.) is reported as 44 mmHg.
With C[C@H](CS)C(=O)N1CCC[C@H]1C(=O)O [captopril, reference compound] the “Decrease in Blood Pressure” value ([2]; 10 mg/kg p.o., reference compound) was 33 mmHg.
With CCC(=O)O[C@](Cc1ccccc1)(c1ccccc1)[C@H](C)CN(C)C [propoxyphene, reference compound] the “Analgesic PQW, % Inhibition of Writhing” value ([1]; 3.9 mg/kg s.c., reference compound) was 50%.
